Columns and labels:
[1] = tested on: IL-1β, TNF-α, MCP-1, CXCL2 in serum; assay: AIA model, serum cytokines by ELISA; type: in vivo, Sprague-Dawley rats; conditions: rat AIA, high-dose group (60 mg/kg)
Procedure: Thirty 4-week-old male Sprague-Dawley rats (weighing 120–130 g) were randomly divided into 6 groups (5 rats per group) after 1 week of adaptive feeding, namely the normal group, model group, low-dose experimental group (15 mg/kg), medium-dose experimental group (30 mg/kg), high-dose experimental group (60 mg/kg), and positive control group (30 mg/kg). Starting from Day 0 of the experiment, rats in the administration groups and model group were injected intradermally with 0.1 mL of CFA into the left hind paw to induce AIA, while rats in the normal group were injected intradermally with an equal volume (0.1 mL) of normal saline as a control. After 13 consecutive days of feeding, rats treated with CFA successfully developed typical AIA symptoms. […] During the experiment, the body weight, mental state, activity ability, hair color changes, and paw appearance changes of the rats were observed and recorded daily. In addition, on Day 0 of the experiment (baseline period), the basic paw volume of all rats was accurately measured using a plethysmometer, which served as a reference standard for subsequent evaluation of inflammation severity. From Day 13 to Day 28 of the experiment, the paw volume of the rats was measured repeatedly every 3 days. The degree of paw swelling was quantified by calculating the change in paw volume relative to the baseline. […] The cytokine levels in serum were measured. […]

NE [2] = assay: Stability (protein level) of NSPs in U937 cells, Western blot, NE; type: cell-based, human; conditions: U937, 10 μM
Procedure: (§1) The Western blot experiments in this study were performed as described below. Cells in the logarithmic growth phase were collected in appropriate numbers according to different experimental purposes. After being thoroughly washed with phosphate-buffered saline and centrifuged, the cell pellets were resuspended in phosphate-buffered saline to obtain single-cell suspensions. Cells were fully lysed using RIPA buffer (Beyotime, P0013B) supplemented with EDTA-free protease and phosphatase inhibitor (Abcam, ab201120). Total cellular protein solutions were obtained after centrifugation to remove cell debris. The isolated proteins were quantified using the BeyoBCA protein assay kit (Beyotime, P0399M) following the operational protocol. The quantified protein samples were thoroughly mixed with protein loading buffer, boiled on a dry bath for 5 min, and then cooled to room temperature for Western blot analysis. […] Finally, enhanced chemiluminescent horseradish peroxidase substrate (Tanon Science & Technology Co., Ltd., Shanghai, China, 180-506) was used to visualize protein bands on a ChemiDoc XRS system (Bio-Rad Laboratories, Inc., Hercules, CA, USA), and the protein bands were quantified using Image Lab analysis software (Version 6.1) (Bio-Rad). […]

Dipeptidyl Peptidase 9 = Dipeptidyl Peptidase 9 (Homo sapiens, UniProt Q86TI2); assay: Recombinant dipeptidyl peptidases isolated enzyme assay, DPP9; type: biochemical; conditions: read-out: Dipeptidyl Peptidase 9 Enz (IC50: μM)
Dipeptidyl Peptidase 9, sequence (Q86TI2 whole entry, species assumed): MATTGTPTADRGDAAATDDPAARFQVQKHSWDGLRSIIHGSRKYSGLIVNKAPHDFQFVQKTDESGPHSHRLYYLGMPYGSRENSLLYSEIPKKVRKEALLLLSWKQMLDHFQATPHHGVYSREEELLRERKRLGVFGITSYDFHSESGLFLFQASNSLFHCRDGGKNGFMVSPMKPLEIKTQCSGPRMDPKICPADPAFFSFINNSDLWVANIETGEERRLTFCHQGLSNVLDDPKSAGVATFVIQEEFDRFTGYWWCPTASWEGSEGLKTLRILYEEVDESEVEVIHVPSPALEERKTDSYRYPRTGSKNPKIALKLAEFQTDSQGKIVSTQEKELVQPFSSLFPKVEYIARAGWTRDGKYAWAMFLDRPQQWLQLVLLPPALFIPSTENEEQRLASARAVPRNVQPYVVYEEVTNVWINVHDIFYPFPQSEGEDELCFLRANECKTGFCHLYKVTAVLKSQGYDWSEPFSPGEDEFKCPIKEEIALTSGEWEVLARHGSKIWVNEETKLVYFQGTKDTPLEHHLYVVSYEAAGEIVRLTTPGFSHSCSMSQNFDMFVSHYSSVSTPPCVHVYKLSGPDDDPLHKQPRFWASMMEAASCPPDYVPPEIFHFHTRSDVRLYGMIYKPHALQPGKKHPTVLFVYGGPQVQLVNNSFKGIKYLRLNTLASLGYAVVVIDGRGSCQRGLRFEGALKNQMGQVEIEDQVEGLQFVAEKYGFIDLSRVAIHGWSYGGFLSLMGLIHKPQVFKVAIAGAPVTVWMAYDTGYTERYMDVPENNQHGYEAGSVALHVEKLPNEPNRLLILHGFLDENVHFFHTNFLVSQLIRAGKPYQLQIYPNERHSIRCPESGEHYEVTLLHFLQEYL
Description: Table 3 Inhibitory effects of marrubiin on dipeptidyl peptidase. | column: Dipeptidyl Peptidase 9 Enz (IC50: μM)

NE [3] = assay: NSPs activity in U937 cells after 5 days of treatment, NE; type: cell-based, human; conditions: U937, 10 μM
Procedure: (§2) U937 cells in the logarithmic growth phase were collected and equally divided into six portions. Four of these portions were treated with DMSO solutions of the test compound at varying concentrations to achieve final concentrations of 1.25, 2.5, 5, and 10 μM, respectively. An equal volume of DMSO was added to one portion as a blank control, while another portion treated with a DMSO solution of AZD7986 served as a positive control. The cells were cultured under standard U937 conditions for 5 consecutive days, with daily medium changes and fresh compound treatments administered using the same protocol. Following 5 days of treatment, cells were harvested, washed twice thoroughly with phosphate-buffered saline, and lysed in phosphate-buffered saline containing 1% Triton X-100. The lysates were centrifuged to collect the supernatant, and protein concentrations were determined as previously described to ensure equal total protein loading across all samples. The prepared samples were stored at −20 °C until further analysis. Different assay buffers were prepared for diluting samples and measuring the activities of specific NSPs: a buffer containing 50 mM Tris and 750 mM NaCl (pH 7.4) was used for NE and PR3; a buffer containing 50 mM Tris, 750 mM NaCl, 5 mM EDTA (pH 7.4) was used for Cat G; and a buffer containing 25 mM MES, 50 mM NaCl, 5 mM DTT (pH 6.0) was used for CTSC. […]

Cat G = assay: Stability (protein level) of NSPs in U937 cells, Western blot, Cat G; type: cell-based, human; conditions: U937, 10 μM
Procedure: as §1

CTSC = CTSC (Homo sapiens, UniProt P53634); assay: CTSC activity in U937 cells after 5 days of treatment; type: cell-based; set-up: endogenous in cells; host or cells: U937; conditions: U937, 5 days, marrubiin and AZD7986 at the same concentration
CTSC, sequence (P53634 25-463): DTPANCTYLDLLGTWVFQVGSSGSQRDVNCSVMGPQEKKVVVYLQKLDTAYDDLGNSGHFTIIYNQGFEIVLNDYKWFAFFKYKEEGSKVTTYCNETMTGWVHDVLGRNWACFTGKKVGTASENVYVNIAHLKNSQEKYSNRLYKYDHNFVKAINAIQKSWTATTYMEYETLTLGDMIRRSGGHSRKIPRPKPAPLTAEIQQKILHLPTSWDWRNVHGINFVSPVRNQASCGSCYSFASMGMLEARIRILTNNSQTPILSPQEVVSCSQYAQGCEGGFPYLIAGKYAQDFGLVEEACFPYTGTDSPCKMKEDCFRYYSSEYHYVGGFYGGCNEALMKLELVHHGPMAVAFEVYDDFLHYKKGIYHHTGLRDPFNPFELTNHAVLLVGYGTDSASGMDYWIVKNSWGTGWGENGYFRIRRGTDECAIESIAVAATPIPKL
Procedure: as §2

C[C@@H]1C[C@H]2OC(=O)[C@@]3(C)CCC[C@@](C)([C@@H]23)[C@@]1(O)CCc1ccoc1 [Marrubiin, marrubiin]
serum levels of IL-1β, TNF-α, MCP-1, CXCL2 [1]: significantly lower than those in model group and control group
NE protein level, % of original level (NE [2]; 96 h): 15.7%
NE protein level, % of original level (NE [2]; 5 days): 8.7%
IC50 (Dipeptidyl Peptidase 9): > 10 µM
NE activity, % of DMSO group (NE [3]): 8.2%
Cat G protein level, % of original level (Cat G; 96 h): 30.2%
Cat G protein level, % of original level (Cat G; 5 days): 12.3%
residual CTSC activity (CTSC): less than 8%

Reference: PMC12610274, “Identification of Marrubiin as a Cathepsin C Inhibitor for Treating Rheumatoid Arthritis” (Molecules, 2025)
